EC50 and IC50 data for ten molecules are collected here from US10766928B2, “Targeted conformationally-constrained kinked endosomal disrupting peptides” (priority 2012, dated 2020).

Test [1] concerns endosomes of Jurkat lymphocytes. Briefly: Endosome disruption in Jurkat lymphocytes: release of carboxyfluorescein from disulfide probe Compound 2, flow cytometry. The note with it: 14 h. As to the method: (§1) The effects of the compounds of the invention on human Juikat leukemia cells were evaluated using flow cytometry-based assays of potency, efficacy, and toxicity. […] Analysis of flow cytometry data by non-linear regression was used to determine IC50 values for potency with the efficacy expressed as a percentage. […] Dose-dependent effects on cellular viability after 48 h at 37° C. in culture were also measured by flow cytometry.
(§2) The # represents the compound number in accordance with Tables A, B, and C. Concentrations of compound stock solutions were determined by absorbance measurements at 280 nm. Efficacy was determined as % change in cellular fluorescence relative to the maximal response of Compound 1, defined as 100%. Potencies and efficacies in Jurkat lymphocytes were measured by flow cytometry after treatment of cells with the compounds listed and the fluorescent probe Compound 2 (2.5 μM) for 14 hours. Toxicity to this cell line was determined by flow cytometry analysis of light scattering and counterstaining with PI after treatment for 48 h at 37° C. in culture. […] N.D., not determined.
Cells were treated with fluorescent molecular probe Compound 2 (2.5 μM) and endosome disruptors for 14 hours at 37° C. Enhanced cellular fluorescence resulting from release of the pH-sensitive fluorophore Compound 3 into the cytoplasm was quantified by flow cytometry.
Natural amino acids are represented by single letter codes. Codes for non-standard elements are as follows: Ch1: (3β-Cholest-5-en-3-yl-ammonio)pentanoyl; Ch2: (Cholester-3-yl)oxy-βAla-βAla; X: ε-Ahx; U: Aib; PB: Pacific Blue fluorophore. O: 3-(2-(2-(2-aminoethoxy)ethoxy)ethoxy)propanyl.

The subject of the next test is Jurkat lymphocytes. The note with it: 48 h. As to the method: as §1, §2

Non-standard residues stand in square brackets, D forms with d. Residues, ends and D or L forms follow the SMILES beside them. *: point of attachment. Pentanoyl(5-NH-cholesteryl) = CC(C)CCC[C@@H](C)[C@H]1CC[C@H]2[C@@H]3CC=C4C[C@@H](NCCCCC(=O)*)CC[C@]4(C)[C@H]3CC[C@]12C; PEG3 = NCCOCCOCCOCCC(=O)O; Aib = CC(C)(N)C(=O)O; Ahx = NCCCCCC(=O)O; βAla = NCCC(=O)O

With `CC(C)CCC[C@@H](C)[C@H]1CC[C@H]2[C@@H]3CC=C4C[C@@H](NCCCCC(=O)NCCC(=O)N[C@@H](CCC(=O)O)C(=O)N[C@@H](CCC(=O)O)C(=O)NCCCCCC(=O)NC(C)(C)C(=O)NC(C)(C)C(=O)N[C@@H](Cc5c[nH]c6ccccc56)C(=O)N[C@@H](Cc5c[nH]c6ccccc56)C(=O)N[C@@H](C)C(=O)N[C@@H](Cc5ccc(O)cc5)C(=O)N[C@@H](Cc5c[nH]c6ccccc56)C(=O)N5CCC[C@H]5C(=O)N5CCC[C@H]5C(=O)N[C@H](C(=O)N[C@@H](C)C(N)=O)C(C)C)CC[C@]4(C)[C@H]3CC[C@]12C` [Compound 10, R = BEEXUUWWAYWPPVA-CONH2] ({Pentanoyl(5-NH-cholesteryl)-βAla}-EE[Ahx][Aib][Aib]WWAYWPPVA-NH2), in test [1], the EC50 amounted to 900 nM. The molecule further returned an IC50 in the test with Jurkat lymphocytes of 15000 nM.

As to `CC(C)CCC[C@@H](C)[C@H]1CC[C@H]2[C@@H]3CC=C4C[C@@H](NCCCCC(=O)NCCC(=O)N[C@@H](CCC(=O)O)C(=O)N[C@@H](CCC(=O)O)C(=O)NCCCCCC(=O)NCCCCCC(=O)NC(C)(C)C(=O)NC(C)(C)C(=O)NC(C)(C)C(=O)NC(C)(C)C(=O)N[C@@H](Cc5ccc(O)cc5)C(=O)N[C@@H](Cc5ccc(O)cc5)C(=O)N[C@@H](C)C(=O)N[C@@H](Cc5ccc(O)cc5)C(=O)N[C@@H](Cc5ccc(O)cc5)C(=O)N5CCC[C@H]5C(=O)N5CCC[C@H]5C(=O)N[C@H](C(=O)N[C@@H](C)C(N)=O)C(C)C)CC[C@]4(C)[C@H]3CC[C@]12C` [Compound 23, R = BEEXXUUUUYYAYYPPVA-CONH2] ({Pentanoyl(5-NH-cholesteryl)-βAla}-EE[Ahx][Ahx][Aib][Aib][Aib][Aib]YYAYYPPVA-NH2), the response in test [1] was half-maximal at 100 nM (EC50). This molecule also had an IC50 in the test with Jurkat lymphocytes of 4000 nM.

For `CC(C)CCC[C@@H](C)[C@H]1CC[C@H]2[C@@H]3CC=C4C[C@@H](NCCCCC(=O)NCCC(=O)N[C@@H](CCC(=O)O)C(=O)N[C@@H](CCC(=O)O)C(=O)NCCCCCC(=O)NCCCCCC(=O)NC(C)(C)C(=O)NC(C)(C)C(=O)NC(C)(C)C(=O)NC(C)(C)C(=O)N[C@@H](Cc5ccc(O)cc5)C(=O)N[C@@H](Cc5ccc(O)cc5)C(=O)N[C@@H](Cc5ccc(O)cc5)C(=O)N[C@@H](Cc5ccc(O)cc5)C(=O)N[C@@H](Cc5ccc(O)cc5)C(=O)N5CCC[C@H]5C(=O)N5CCC[C@H]5C(=O)N[C@H](C(=O)N[C@@H](C)C(N)=O)C(C)C)CC[C@]4(C)[C@H]3CC[C@]12C` [Compound 24, R = BEEXXUUUUYYYYYPPVA-CONH2] ({Pentanoyl(5-NH-cholesteryl)-βAla}-EE[Ahx][Ahx][Aib][Aib][Aib][Aib]YYYYYPPVA-NH2), in test [1], the EC50 is 90 nM. This molecule had an IC50 in the test with Jurkat lymphocytes of 5000 nM.

In test [1], `CC(C)CCC[C@@H](C)[C@H]1CC[C@H]2[C@@H]3CC=C4C[C@@H](NCCCCC(=O)NCCC(=O)N[C@@H](CCC(=O)O)C(=O)N[C@@H](CCC(=O)O)C(=O)NCCCCCC(=O)NCCCCCC(=O)N[C@@H](C)C(=O)N[C@@H](C)C(=O)N[C@@H](C)C(=O)N[C@@H](Cc5c[nH]c6ccccc56)C(=O)N[C@@H](Cc5c[nH]c6ccccc56)C(=O)N[C@@H](C)C(=O)N[C@@H](Cc5ccc(O)cc5)C(=O)N[C@@H](Cc5c[nH]c6ccccc56)C(=O)N5CCC[C@H]5C(=O)N5CCC[C@H]5C(=O)N[C@H](C(=O)N[C@@H](C)C(N)=O)C(C)C)CC[C@]4(C)[C@H]3CC[C@]12C` [Compound 8, R = BEEXXAAAWWAYWPPVA-CONH2] ({Pentanoyl(5-NH-cholesteryl)-βAla}-EE[Ahx][Ahx]AAAWWAYWPPVA-NH2) showed an EC50 of 400 nM. In addition, the IC50 with Jurkat lymphocytes is 9000 nM.

Regarding `CC(C)CCC[C@@H](C)[C@H]1CC[C@H]2[C@@H]3CC=C4C[C@@H](NCCCCC(=O)NCCC(=O)N[C@@H](CCC(=O)O)C(=O)N[C@@H](CCC(=O)O)C(=O)NCCCCCC(=O)NC(C)(C)C(=O)NC(C)(C)C(=O)NC(C)(C)C(=O)N[C@@H](Cc5c[nH]c6ccccc56)C(=O)N[C@@H](Cc5c[nH]c6ccccc56)C(=O)N[C@@H](C)C(=O)N[C@@H](Cc5ccc(O)cc5)C(=O)N[C@@H](Cc5c[nH]c6ccccc56)C(=O)N5CCC[C@H]5C(=O)N5CCC[C@H]5C(=O)N[C@H](C(N)=O)C(C)C)CC[C@]4(C)[C@H]3CC[C@]12C` [Compound 11, R = BEEXUUUWWAYWPPV-CONH2] ({Pentanoyl(5-NH-cholesteryl)-βAla}-EE[Ahx][Aib][Aib][Aib]WWAYWPPV-NH2), in test [1], the midpoint of the response, the EC50, lay at 800 nM. In the test with Jurkat lymphocytes, this molecule came in with an IC50 of 15000 nM.

For the molecule `CC(C)CCC[C@@H](C)[C@H]1CC[C@H]2[C@@H]3CC=C4C[C@@H](NCCCCC(=O)NCCC(=O)N[C@@H](CCC(=O)O)C(=O)N[C@@H](CCC(=O)O)C(=O)NCCCCCC(=O)NC(C)(C)C(=O)NC(C)(C)C(=O)NC(C)(C)C(=O)N[C@@H](C)C(=O)N[C@@H](Cc5c[nH]c6ccccc56)C(=O)N[C@@H](C)C(=O)N[C@@H](Cc5ccc(O)cc5)C(=O)N[C@@H](Cc5c[nH]c6ccccc56)C(=O)N5CCC[C@H]5C(=O)N5CCC[C@H]5C(=O)N[C@H](C(=O)N[C@@H](C)C(N)=O)C(C)C)CC[C@]4(C)[C@H]3CC[C@]12C` [Compound 12, R = BEEXUUUAWAYWPPVA-CONH2] ({Pentanoyl(5-NH-cholesteryl)-βAla}-EE[Ahx][Aib][Aib][Aib]AWAYWPPVA-NH2), in test [1], it took 400 nM to reach a half-maximal effect (EC50). Besides, it took 14000 nM to reach half-maximal inhibition in the test with Jurkat lymphocytes (IC50).

In test [1], `CC(C)CCC[C@@H](C)[C@H]1CC[C@H]2[C@@H]3CC=C4C[C@@H](NCCCCC(=O)NCCC(=O)N[C@@H](CCC(=O)O)C(=O)N[C@@H](CCC(=O)O)C(=O)NCCCCCC(=O)NC(C)(C)C(=O)NC(C)(C)C(=O)NC(C)(C)C(=O)NC(C)(C)C(=O)N[C@@H](Cc5c[nH]c6ccccc56)C(=O)N[C@@H](Cc5c[nH]c6ccccc56)C(=O)N[C@@H](C)C(=O)N[C@@H](Cc5ccc(O)cc5)C(=O)N[C@@H](Cc5c[nH]c6ccccc56)C(=O)N5CCC[C@H]5C(=O)N5CCC[C@H]5C(=O)N[C@H](C(=O)N[C@@H](C)C(N)=O)C(C)C)CC[C@]4(C)[C@H]3CC[C@]12C` [Compound 20, R = BEEXUUUUWWAYWPPVA-CONH2] ({Pentanoyl(5-NH-cholesteryl)-βAla}-EE[Ahx][Aib][Aib][Aib][Aib]WWAYWPPVA-NH2) registered an EC50 of 100 nM. In addition, inhibition in the test with Jurkat lymphocytes was half-maximal at 15000 nM (IC50).

Molecule `CC(C)CCC[C@@H](C)[C@H]1CC[C@H]2[C@@H]3CC=C4C[C@@H](NCCCCC(=O)NCCC(=O)N[C@@H](CCC(=O)O)C(=O)N[C@@H](CCC(=O)O)C(=O)NCCCCCC(=O)NC(C)(C)C(=O)NC(C)(C)C(=O)NC(C)(C)C(=O)N[C@@H](Cc5c[nH]c6ccccc56)C(=O)N[C@@H](Cc5c[nH]c6ccccc56)C(=O)N[C@@H](C)C(=O)N[C@@H](Cc5c[nH]c6ccccc56)C(=O)N[C@@H](Cc5c[nH]c6ccccc56)C(=O)N5CCC[C@H]5C(=O)N5CCC[C@H]5C(=O)N[C@H](C(=O)N[C@@H](C)C(N)=O)C(C)C)CC[C@]4(C)[C@H]3CC[C@]12C` [Compound 19, R = BEEXUUUWWAWWPPVA-CONH2] ({Pentanoyl(5-NH-cholesteryl)-βAla}-EE[Ahx][Aib][Aib][Aib]WWAWWPPVA-NH2) showed an EC50 in test [1] of 1000 nM. Moreover, in the test on Jurkat lymphocytes, half-maximal inhibition (IC50) required 20000 nM.

On to `CC(C)CCC[C@@H](C)[C@H]1CC[C@H]2[C@@H]3CC=C4C[C@@H](NCCCCC(=O)NCCC(=O)N[C@@H](CCC(=O)O)C(=O)N[C@@H](CCC(=O)O)C(=O)NCCOCCOCCOCCC(=O)NCCOCCOCCOCCC(=O)NC(C)(C)C(=O)NC(C)(C)C(=O)NC(C)(C)C(=O)NC(C)(C)C(=O)N[C@@H](Cc5c[nH]c6ccccc56)C(=O)N[C@@H](Cc5c[nH]c6ccccc56)C(=O)N[C@@H](C)C(=O)N[C@@H](Cc5ccc(O)cc5)C(=O)N[C@@H](Cc5c[nH]c6ccccc56)C(=O)N5CCC[C@H]5C(=O)N5CCC[C@H]5C(=O)N[C@H](C(=O)N[C@@H](C)C(=O)N[C@@H](C)C(N)=O)C(C)C)CC[C@]4(C)[C@H]3CC[C@]12C` [Compound 27, R = BEEOOUUUUWWAYWPPVAA-CONH2] ({Pentanoyl(5-NH-cholesteryl)-βAla}-EE[PEG3][PEG3][Aib][Aib][Aib][Aib]WWAYWPPVAA-NH2), for which, in test [1], the EC50 was found to be 200 nM. Besides, the midpoint of inhibition in the test on Jurkat lymphocytes, the IC50, lay at 3000 nM.

For `CC(C)CCC[C@@H](C)[C@H]1CC[C@H]2[C@@H]3CC=C4C[C@@H](NCCCCC(=O)NCCC(=O)N[C@@H](CCC(=O)O)C(=O)N[C@@H](CCC(=O)O)C(=O)NCCCCCC(=O)NCCCCCC(=O)NC(C)(C)C(=O)NC(C)(C)C(=O)NC(C)(C)C(=O)NC(C)(C)C(=O)N[C@@H](Cc5c[nH]c6ccccc56)C(=O)N[C@@H](Cc5c[nH]c6ccccc56)C(=O)N[C@@H](C)C(=O)N[C@@H](Cc5ccc(O)cc5)C(=O)N[C@@H](Cc5c[nH]c6ccccc56)C(=O)N5CCC[C@H]5C(=O)N5CCC[C@H]5C(=O)N[C@H](C(=O)N[C@@H](C)C(N)=O)C(C)C)CC[C@]4(C)[C@H]3CC[C@]12C` [Compound 21, R = BEEXXUUUUWWAYWPPVA-CONH2] ({Pentanoyl(5-NH-cholesteryl)-βAla}-EE[Ahx][Ahx][Aib][Aib][Aib][Aib]WWAYWPPVA-NH2), it took 100 nM to reach a half-maximal effect in test [1] (EC50). This molecule also yielded an IC50 in the test with Jurkat lymphocytes of 9000 nM.
